Experiments:
[1] = Relaxivity measurements (r1, r2) in PBS solution; assay type: physicochemical; details: PBS solution, 36° C.
Procedure: Longitudinal and transverse relaxivities, r1 and r2, were measured at 20 MHz (0.47 T) and 60 MHz (1.41 T) at 36° C. on NMR (mq20 and mq60, Bruker, Germany) and animal MRI (Biospec 47/40, Bruker, Germany) systems. T1 and T2 relaxation times were measured with inversion recovery and spin-echo pulse sequences, respectively.
The relaxation efficiency of the newly synthesized amphiphilic MRI contrast agents according to the present invention was determined by measuring longitudinal relaxivity (r1) and transverse relaxivity (r2) at 20 MHZ (0.47 T) and 60 MHz (1.41 T) in phosphate buffered saline (PBS) solution at 36° C.

[2] = Contrast-enhanced dynamic MRI in mice (CNR in liver and blood); assay type: in vivo, Balb/C mice; details: i.v. injection, 4.7 T
Procedure: The whole-body pharmacokinetics of T1 contrast agents can be measured by dynamic 2D or 3D MR imaging.
5-Week-old male Balb/C mice (n=3; OrientBio, Korea) were used for contrast-enhanced dynamic MRI. MRI was performed by using a 4.7 T MRI system (BioSpec 47/40; Bruker, Germany) with a quadrature birdcage RF coil (35 mm inner diameter) for signal transmission and reception.
Bolus of the contrast agents (0.1 mmol Gd/kg) was injected via tail vein. During MRI acquisition, the animals were anesthetized using 1-1.25% of inhalational isoflurane with O2:N2O (3:7) mixture.
To quantitatively measure signal intensity in region-of-interests (ROIs) as contrast-noise ratio (CNR), a reference of water sample (1 g/l CuSO4 in 8:2 of D2O:H2O) in a cylindrical tube (5 mm diameter) was used.
Dynamic 2D T1-weighted images were acquired using a spin-echo (SE) pulse sequence with the following parameters: TE/TR=10/400 ms, number of average=4, matrix size=256×256, slice thickness=1 mm, field of view=30×30 mm^2 (in axial slice) or 50×30 mm^2 (in coronal slice), and scan time=6 min 50 s).
Dynamic 3D T1-weighted images were acquired using a fast low angle shot gradient echo (FLASH) pulse sequence with parameters of TE/TR=2.4/7.5 ms, number of average=4, flip angle=30°, field of view=30×30×20 mm^3, matrix size=256×256×128, and scan time=12 min 17 s.

[3] = clinically used commercial T1 contrast agents, comparison values; cited from earlier work

Relaxivity r1 ([1]; 20 MHz (0.47 T)): 4.41 mM⁻¹ s⁻¹
Relaxivity r1 ([1]; 60 MHz (1.41 T)): 3.68 mM⁻¹ s⁻¹
SMILES: CNC(=O)CN(CCN(CCN(CC(=O)[O-])CC(=O)NC)CC(=O)[O-])CC(=O)[O-].[Gd+3] [Omniscan ®, Gd-DTPA-BMA, reference compound]
Peak CNR in liver [2]: about 2.8
Relaxivity retained after transmetallation (commercial contrast agents) [3]: 10%

From patent US9290535B2, “Uridine-based gadolinium complex and MRI contrast agent including the same” (Korea University Researchand Business Foundation, priority 2011, dated 2016)
